According to patent publication US9521846B2, “Template-fixed peptidomimetics with antimicrobial activity” (priority 2006, dated 2016):
In brackets after ≈: the same amount, converted by molar mass. Non-standard residues stand in square brackets, D forms with d. Residues, ends and D or L forms follow the SMILES beside them. Dab = NCC[C@H](N)C(=O)O

Experiments:
[1] = system: Pseudomonas aeruginosa P1021913; type: cell-based; conditions: P1021913
Summary of the method: (§1)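 Peptides were serially diluted two-fold in MH broth containing 0.02% BSA and combined 1:1 with bacterial suspension adjusted to roughly 10^6 CFU/ml, following a modified NCCLS microdilution protocol.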

[2] = system: Pseudomonas aeruginosa P8191900; type: cell-based; conditions: P8191900
Summary of the method: as §1

[3] = system: Pseudomonas aeruginosa IMP 1 Livermore 3140; type: cell-based; conditions: IMP 1 Livermore 3140
Summary of the method: as §1

[4] = system: Pseudomonas aeruginosa P1021903; type: cell-based; conditions: P1021903
Summary of the method: as §1

[5] = system: Pseudomonas aeruginosa (ATCC 27853); test: In vivo septicemia assay; design: species or system CD-1 mice; conditions: groups of 6 mice
Method: Groups of 6 CD-1 (Crl.) derived male mice weighing 24±2 g were used. The mice were each inoculated intravenously (IV) with an LD90-100 of Pseudomonas aeruginosa (ATCC 27853) (9×10^6 CFU/0.5 ml/mouse) in brain heart infusion broth without 5% mucin. Compound at doses of 5, 2.5, 1, 0.5, 0.25 and 0.1 mg/kg, vehicle (0.9% NaCl, 10 ml/kg) was administered subcutaneously (SC) to test animals at 1 hour after bacterial inoculation. Also, an additional group was treated twice with compound at a dose of 5 mg/kg at 1 and 6 hours after bacterial inoculation. Mortality was recorded once daily for 7 days following the bacterial inoculation and an increase of survival of the animals by 50 percent or more (^3 50%) after the bacterial inoculation, relative to vehicle control, indicates significant antimicrobial effect. The MED (ED50) was determined by nonlinear regression using Graph-Pad Prism (Graph Pad Software, USA).
Septicaemia experiment in mice: LD90-100 of Pseudomonas aeruginosa (ATCC 27853) (9×10^6 CFU/0.5 ml/mouse IV and after 1 h Ex. 1 s.c.
Septicaemia experiment in mice: LD90-100 of Pseudomonas aeruginosa (ATCC 27853) (9×10^6 CFU/0.5 ml/mouse IV), and after 1 and 5 h Ex. 40 s.c.
Septicaemia experiment in mice: LD90-100 of Pseudomonas aeruginosa (ATCC 27853) (9×10^6 CFU/0.5 ml/mouse IV), and after 1 and 5 h Ex. 50 s.c.

in vivo = test: in vivo; design: species or system CD-1 mice
Method: Pharmacokinetic Study after Single Intravenous, Subcutaneous and Intraperitoneal Administration in Mice Pharmacokinetic study after single intravenous (i.v.) and subcutaneous (s.c.) administration was performed for the compound of Example 1 (“Ex. 1”). CD-1 mice (20-25 g) were used in the study. Physiological saline was used a vehicle. The volume was 2 ml/kg i.v., and 5 ml/kg s.c. and the peptide Ex. 1 was injected to give a final intravenous dose of 1 mg/kg, and a subcutaneous dose of 5 mg/kg. […] Plasma was removed from pelleted cells upon centrifugation and frozen at −80° C. prior to HPLC-MS analysis. “Blank” mouse plasma from untreated animals was used. Aliquots of plasma of 0.2 ml each were spiked with 50 ng of propranolol (Internal Standard, IS), (sample preparation by solid phase extraction on OASIS® BIB cartridges (Waters)) and with known amounts of Ex. 1 in order to obtain 9 plasma calibration samples in the range 10-5000 nM. […] The plate containing eluates was introduced into the concentrator system and taken to dryness. […] Samples coming from animal treatments were pooled in order to obtain an appropriate volume for the extraction. If the total volume obtained was less than 0.2 ml the appropriate amount of “blank” mouse plasma was added in order to keep the matrix identical to the calibration curve. Samples were than spiked with IS and processed as described for the calibration curve. PK analysis was performed on pooled data (generally n=2 or 3) using the software Win Nonlin (Pharsight). The area under the curve AUC was calculated by the linear trapezoidal rule. Elimination half-life was calculated by the linear regression on at least three data points during the elimination phase. The time intervals selected for the half-life determinations were evaluated by the correlation coefficient (r^2), which should be at least above 0.85 and most optimally above 0.96. In case of i.v. administration the initial concentration at tzero was determined by extrapolation of the curve through the first two time points. Finally bioavailability after […]. administration was calculated from the normalised AUCinf_D_obs ration after s.c. versus i.v. administration.

[6] = Plasma stability, rat plasma; type: in vitro ADME
[7] = Plasma stability, human plasma; type: in vitro ADME
[8] = 0.1 mg/kg, 1 h after inoculation
[9] = 0.25 mg/kg, 1 h after inoculation
[10] = 0.5 mg/kg, 1 h after inoculation
[11] = 2.5 mg/kg, 1 h after inoculation

## CC[C@H](C)[C@@H]1NC(=O)[C@H](Cc2c[nH]c3ccccc23)NC(=O)[C@H]([C@@H](C)O)NC(=O)[C@@H]2CCCN2C(=O)[C@H]2CCCN2C(=O)[C@H](CCN)NC(=O)[C@H](C)NC(=O)[C@H](CCN)NC(=O)[C@H](CCN)NC(=O)[C@H](Cc2c[nH]c3ccccc23)NC(=O)[C@H](CCN)NC(=O)[C@H](CCN)NC(=O)[C@H](CCCCN)NC(=O)[C@H](CCN)NC1=O [Example 1] (cyclo(TWI[Dab]K[Dab][Dab]W[Dab][Dab]A[Dab][dP]P))
P. aeruginosa
  Average MIC: 0.10 µg/mL
[1]
  MIC P. aeruginosa P1021913: 0.13 µg/mL (≈ 0.0822 µM)
[2]
  MIC P. aeruginosa P8191900: 0.07 µg/mL (≈ 0.0443 µM)
[3]
  MIC P. aeruginosa IMP1 Livermore 3140: 0.18 µg/mL (≈ 0.114 µM)
[4]
  MIC P. aeruginosa P1021903: 0.07 µg/mL (≈ 0.0443 µM)
[5]; [8]
  Dead: 5
  Survivors: 1
[5]; [9]
  Dead: 5
  Survivors: 1
[5]; [10]
  Dead: 2
  Survivors: 4
[5]; 1 mg/kg, 1 h after inoculation
  Dead: 1
  Survivors: 5
[5]; [11]
  Dead: 0
  Survivors: 6
[5]; 5 mg/kg, 1 h after inoculation
  Dead: 0
  Survivors: 6
[5]; 10 (2 × 5) mg/kg, 7 days
  Dead: 0
  Survivors: 6
In vivo; CD-1, mouse, iv, 1 mg/kg
  Vd: 1.14 L/kg
  clearance: 25.7 mL/min/kg
  level at 0.25 h: 575 ng/mL
  level at 1 h: 177 ng/mL
  level at 3 h: 10.6 ng/mL
In vivo; CD-1, mouse, sc, 5 mg/kg
  level at 8 h: 7.3 ng/mL
In vivo; mouse, 5 mg/kg
  bioavailability: 118.2%
In vivo; mouse, 5 mg/kg, Bioavailability
  bioavailability: 118%
In vivo; mouse, iv, 1 mg/kg
  AUC(0-inf): 680 ng·h/mL
  C0: 2170 ng/mL
  Cmax_D: 1268.0 kg·ng/mL/mg
  Tmax: 4.8 min
  half-life: 31.8 min
In vivo; mouse, iv, 1 mg/kg, Bioavailability
  bioavailability: 100%
In vivo; mouse, iv, 1 mg/kg, Cmax
  Cmax: 1270 ng/mL
In vivo; mouse, sc, 5 mg/kg
  AUC(0-inf): 4020 ng·h/mL
  Cl_obs: 20.83 mL/min/kg
  Cmax: 2333.3 ng/mL
  Cmax_D: 466.7 kg·ng/mL/mg
  Tmax: 34.8 min
  Vz_obs: 1.7056 L/kg
  half-life: 57 min
In vivo; mouse, sc, 5 mg/kg, Cmax
  Cmax: 2330 ng/mL
[6]
  Stability rat Plasma t1/2: 300 min
[7]
  Stability human Plasma t1/2: 300 min
